Data from PubChem BioAssay AID256 (DTP/NCI, 2004).
Where “and” joins values, the source holds several entries; their conditions need not be identical. Identical values can stand only once. Inconclusive results and toxic doses are left out. How the source made its calls: active means survival T/C of 150% or more; inactive means T/C below 125% in these data.

Test system: CD2F1 mice, L1210 leukemia ip, survival T/C
Assay: NCI In Vivo Anticancer Drug Screen. Data for tumor model L1210 Leukemia (intraperitoneal) in CD2F1 (CDF1) mice
Settings: endpoint: mean survival time, higher = longer survival
Summary of the method: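 In this screen, transplantable tumors were grown in mice given either the compound or its vehicle. Results were expressed as the treated measurement relative to the control measurement.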

Measured: T/C

CC[C@H]1CN2CCc3cc(OC)c(OC)cc3[C@@H]2C[C@@H]1C[C@H]1NCCc2cc(OC)c(OC)cc21
inactive: dose: 2.0 mg/kg/injection, schedule: Q01DX007 (ip), vehicle: Klucel (hydroxypropylcellulose) (HPC) 107 % of control | dose: 2.0 mg/kg/injection, schedule: Q01DX009 (ip), vehicle: Klucel (hydroxypropylcellulose) (HPC) 108 % of control | dose: 2.0 mg/kg/injection, schedule: Q02DX005 (ip), vehicle: saline 93 % of control and 102 % of control | dose: 2.0 mg/kg/injection, schedule: Q03DX003 (ip), vehicle: Klucel (hydroxypropylcellulose) (HPC) 110 % of control | dose: 2.0 mg/kg/injection, schedule: Q04DX003 (ip), vehicle: Klucel (hydroxypropylcellulose) (HPC) 104 % of control | dose: 4.0 mg/kg/injection, schedule: Q01DX007 (ip), vehicle: Klucel (hydroxypropylcellulose) (HPC) 118 % of control | dose: 4.0 mg/kg/injection, schedule: Q01DX009 (ip), vehicle: Klucel (hydroxypropylcellulose) (HPC) 122 % of control | dose: 4.0 mg/kg/injection, schedule: Q02DX005 (ip), vehicle: saline 104 % of control | dose: 4.0 mg/kg/injection, schedule: Q03DX003 (ip), vehicle: Klucel (hydroxypropylcellulose) (HPC) 106 % of control | dose: 4.0 mg/kg/injection, schedule: Q04DX003 (ip), vehicle: Klucel (hydroxypropylcellulose) (HPC) 104 % of control | dose: 8.0 mg/kg/injection, schedule: Q01DX007 (ip), vehicle: Klucel (hydroxypropylcellulose) (HPC) 105 % of control | dose: 8.0 mg/kg/injection, schedule: Q01DX009 (ip), vehicle: Klucel (hydroxypropylcellulose) (HPC) 101 % of control | dose: 8.0 mg/kg/injection, schedule: Q03DX003 (ip), vehicle: Klucel (hydroxypropylcellulose) (HPC) 110 % of control | dose: 8.0 mg/kg/injection, schedule: Q04DX003 (ip), vehicle: Klucel (hydroxypropylcellulose) (HPC) 110 % of control | dose: 30.0 mg/kg/injection, schedule: Q04DX003 (ip), vehicle: saline with Tween-80 124 % of control | dose: 40.0 mg/kg/injection, schedule: Q04DX003 (ip), vehicle: saline with Tween-80 95 % of control
active: dose: 25.0 mg/kg/injection, schedule: Q04DX003 (ip), vehicle: saline with Tween-80 164 % of control and 195 % of control

CC1(C)CC(C)(Br)C(Br)C(=O)C1C(O)(C(F)(F)F)C(F)(F)F (configuration not stated)
inactive: dose: 100.0 mg/kg/injection, schedule: Q04DX003 (ip), vehicle: saline with Tween-80 100 % of control | dose: 200.0 mg/kg/injection, schedule: Q04DX003 (ip), vehicle: saline with Tween-80 97 % of control | dose: 400.0 mg/kg/injection, schedule: Q04DX003 (ip), vehicle: saline with Tween-80 100 % of control

FC1(F)C(Cl)=[C]([Hg][C]2=C(Cl)C(F)(F)C(F)(F)C(F)(F)C2(F)F)C(F)(F)C(F)(F)C1(F)F
inactive: dose: 37.5 mg/kg/injection, schedule: Q04DX003 (ip), vehicle: saline 104 % of control | dose: 75.0 mg/kg/injection, schedule: Q01DX001 (ip), vehicle: saline 106 % of control | dose: 75.0 mg/kg/injection, schedule: Q04DX003 (ip), vehicle: saline 97 % of control | dose: 150.0 mg/kg/injection, schedule: Q01DX001 (ip), vehicle: saline 95 % of control

NC(=S)N/N=C/c1cc([N+](=O)[O-])ccc1O
inactive: dose: 50.0 mg/kg/injection, schedule: Q01DX009 (ip), vehicle: Klucel (hydroxypropylcellulose) (HPC) 113 % of control | dose: 100.0 mg/kg/injection, schedule: Q01DX009 (ip), vehicle: Klucel (hydroxypropylcellulose) (HPC) 97 % of control | dose: 200.0 mg/kg/injection, schedule: Q01DX009 (ip), vehicle: Klucel (hydroxypropylcellulose) (HPC) 101 % of control
